Results from patent US20050014215A1, “Method and medium for the detecting/identifying microorganisms with esterase and/or r osidase and/or peptidase and/or sulfatase and/or phosphatase activity” (priority 2000, published 2005).
Where two headings read alike, the source gives them in different places.

Columns and labels:
[1] = Substrate solubility with different FASE (Example 8); assay type: physicochemical
Experimental: Different stock solutions of substrate are prepared in DMSO in the presence of Tween® 20, Tween® 80 (polyethoxylated sorbitan monooleate), Tween® 60 (polyethoxylated sorbitan monostearate) or Tween® 65 (polyethoxylated sorbitan tristearate). A volume corresponding to a final concentration of 500 mg/l of substrate is then added to a supercooled gelled medium, namely MacConkey medium.

[2] = Appearance of stock solutions of 2-alizarin octanoate in solvent/Tween 20 (Example 7); assay type: physicochemical; settings: 60% Tween 20
Experimental: The substrate tested is 1,2-dihydroxyanthraquinone octanoate (2-alizarin octanoate). Different stock solutions of substrate are prepared with DMF, DMSO, methanol or methoxyethanol as solvent and in the presence of Tween® 20 in all cases.

Substance: polyethoxylated sorbitan monooleate (20 EO) [TWEEN® 80]
- substrate solubility [1]: good substrate solubility

Substance: polyethoxylated sorbitan monostearate (20 EO) [TWEEN® 60]
- substrate solubility [1]: good substrate solubility

Substance: polyethoxylated sorbitan monolaurate containing 20 units of ethylene oxide (EO) [TWEEN® 20]
- substrate solubility ([1]; 40% DMSO, 60% Tween): good substrate solubility

Substance: 1,2-dihydroxyanthraquinone octanoate [2-alizarin octanoate]
- Appearance of the stock solution ([2]; 40% DMF): total
- Appearance of the stock solution ([2]; 40% DMSO): precipitate
- Appearance of the stock solution ([2]; 40% methanol): precipitate
- Appearance of the stock solution ([2]; 40% methoxyethanol): total
